Data reported in patent US20220388964A1 (HiberCell, Inc., priority 2019, published 2022).

The compounds below were run against GCN2 (Homo sapiens, UniProt Q9P2K8) (assay: TR-FRET biochemical assay for inhibition of GCN2 (Example 106, for Example 1-4BB)). Conditions: Table 8.
Chain of GCN2 (Q9P2K8 whole entry): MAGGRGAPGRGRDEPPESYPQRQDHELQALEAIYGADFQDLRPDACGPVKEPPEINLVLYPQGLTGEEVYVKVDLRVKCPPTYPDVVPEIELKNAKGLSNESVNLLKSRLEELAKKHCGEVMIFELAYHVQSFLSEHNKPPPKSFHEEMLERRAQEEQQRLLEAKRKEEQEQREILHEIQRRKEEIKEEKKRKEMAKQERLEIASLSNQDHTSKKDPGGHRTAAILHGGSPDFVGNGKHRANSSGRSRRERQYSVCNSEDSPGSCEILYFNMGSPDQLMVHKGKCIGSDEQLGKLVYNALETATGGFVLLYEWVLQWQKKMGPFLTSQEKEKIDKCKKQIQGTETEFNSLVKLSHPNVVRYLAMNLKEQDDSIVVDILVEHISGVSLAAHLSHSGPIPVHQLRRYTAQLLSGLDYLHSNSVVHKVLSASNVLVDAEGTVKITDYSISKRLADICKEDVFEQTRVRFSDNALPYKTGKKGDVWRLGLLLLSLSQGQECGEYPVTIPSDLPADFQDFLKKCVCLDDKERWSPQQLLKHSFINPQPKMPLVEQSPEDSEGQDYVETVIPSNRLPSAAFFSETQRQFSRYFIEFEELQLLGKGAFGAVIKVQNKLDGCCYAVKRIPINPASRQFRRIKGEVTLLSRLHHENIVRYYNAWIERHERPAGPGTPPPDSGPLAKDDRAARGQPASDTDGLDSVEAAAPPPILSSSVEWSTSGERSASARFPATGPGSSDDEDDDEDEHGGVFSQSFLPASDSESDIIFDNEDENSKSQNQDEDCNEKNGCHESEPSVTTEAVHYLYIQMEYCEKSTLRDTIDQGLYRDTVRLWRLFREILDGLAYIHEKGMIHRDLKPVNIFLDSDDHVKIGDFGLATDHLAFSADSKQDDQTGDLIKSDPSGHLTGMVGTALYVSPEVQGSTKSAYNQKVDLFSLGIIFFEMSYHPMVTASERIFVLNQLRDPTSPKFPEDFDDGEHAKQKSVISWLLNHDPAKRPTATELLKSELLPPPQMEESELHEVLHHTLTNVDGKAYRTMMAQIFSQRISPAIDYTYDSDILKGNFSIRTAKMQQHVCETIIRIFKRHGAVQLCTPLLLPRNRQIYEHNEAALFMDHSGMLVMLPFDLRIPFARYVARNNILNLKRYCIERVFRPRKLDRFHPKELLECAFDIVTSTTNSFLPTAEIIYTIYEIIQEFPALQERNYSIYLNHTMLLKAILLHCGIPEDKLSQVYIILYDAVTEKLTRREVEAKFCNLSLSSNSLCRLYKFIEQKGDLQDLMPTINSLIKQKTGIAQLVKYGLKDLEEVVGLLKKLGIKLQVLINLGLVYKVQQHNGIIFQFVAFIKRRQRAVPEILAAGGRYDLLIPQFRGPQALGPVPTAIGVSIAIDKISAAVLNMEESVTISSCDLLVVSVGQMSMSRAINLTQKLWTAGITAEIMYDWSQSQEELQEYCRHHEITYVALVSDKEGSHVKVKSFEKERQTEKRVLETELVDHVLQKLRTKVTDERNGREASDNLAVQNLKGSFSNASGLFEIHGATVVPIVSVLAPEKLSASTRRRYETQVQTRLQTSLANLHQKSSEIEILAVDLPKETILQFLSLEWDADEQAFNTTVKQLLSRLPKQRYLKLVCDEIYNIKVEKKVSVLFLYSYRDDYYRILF

IC50 [nM]	Compound
2500 to 10000	O=S(=O)(Nc1ccc(F)c(-c2ccc3c(-c4ncc[nH]4)n[nH]c3c2F)c1F)c1cccnc1 [Example 2CO, N-(2,4-difluoro-3-(7-fluoro-3-(1H-imidazol-2-yl)-1H-indazol-6-yl)phenyl)pyridine-3-sulfonamide]
< 500	COc1ncc(Cl)cc1S(=O)(=O)Nc1cccc(-c2ccc3c(-c4ncc[nH]4)n[nH]c3c2F)c1F [Example 2M, 5-chloro-N-(2-fluoro-3-(7-fluoro-3-(1H-imidazol-2-yl)-1H-indazol-6-yl)phenyl)-2-methoxy-pyridine-3-sulfonamide]
2500 to 10000	Cn1cc(S(=O)(=O)Nc2ccc(F)c(-c3ccc4c(-c5ncc[nH]5)n[nH]c4c3F)c2F)nn1 [Example 2W, N-(2,4-difluoro-3-(7-fluoro-3-(1H-imidazol-2-yl)-1H-indazol-6-yl)phenyl)-1-methyl-1H-1,2,3-triazole-4-sulfonamide]
< 500	Cc1noc(C)c1S(=O)(=O)Nc1ccc(F)c(-c2ccc3c(-c4ncc[nH]4)n[nH]c3c2F)c1F [Example 2AZ, N-(2,4-difluoro-3-(7-fluoro-3-(1H-imidazol-2-yl)-1H-indazol-6-yl)phenyl)-3,5-dimethylisoxazole-4-sulfonamide]
< 500	O=S(=O)(Nc1ccc(F)c(-c2ccc3c(-c4ncc[nH]4)n[nH]c3c2F)c1F)c1cccc(CO)c1 [Example 3, N-(2,4-Difluoro-3-(7-fluoro-3-(1H-imidazol-2-yl)-1H-indazol-6-yl)phenyl)-3-(hydroxymethyl)benzenesulfonamide]
< 500	Cc1cccc(S(=O)(=O)Nc2ccc(F)c(-c3ccc4c(-c5ncc[nH]5)n[nH]c4c3F)c2F)c1C [Example 2AI, N-(2,4-difluoro-3-(7-fluoro-3-(1H-imidazol-2-yl)-1H-indazol-6-yl)phenyl)-2,3-dimethylbenzenesulfonamide]
< 500	COc1cccc(S(=O)(=O)Nc2ccc(F)c(-c3ccc4c(-c5ncc[nH]5)n[nH]c4c3F)c2F)c1 [Example 2F, N-(2,4-difluoro-3-(7-fluoro-3-(1H-imidazol-2-yl)-1H-indazol-6-yl)phenyl)-3-methoxy-benzene-sulfonamide]
< 500	Cc1ccc(Cl)cc1S(=O)(=O)Nc1ccc(F)c(-c2ccc3c(-c4ncc[nH]4)n[nH]c3c2)c1F [Example 2AW, N-(3-(3-(1H-imidazol-2-yl)-1H-indazol-6-yl)-2,4-difluorophenyl)-5-chloro-2-methylbenzenesulfonamide]
< 500	O=S(=O)(Nc1ccc(F)c(-c2ccc3c(-c4ncc[nH]4)n[nH]c3c2F)c1F)c1cc(Cl)cc(CO)c1Cl [Example 2AF, 2,5-dichloro-N-(2,4-difluoro-3-(7-fluoro-3-(1H-imidazol-2-yl)-1H-indazol-6-yl)-phenyl)-3-(hydroxyl-methyl)benzenesulfonamide]
500 to 2500	COc1ccc(S(=O)(=O)Nc2ccc(F)c(-c3ccc4c(-c5ncc[nH]5)n[nH]c4c3F)c2F)cc1 [Example 2B, N-(2,4-difluoro-3-(7-fluoro-3-(1H-imidazol-2-yl)-1H-indazol-6-yl)phenyl)-4-methoxybenzene-sulfonamide]
500 to 2500	COc1cccc(S(=O)(=O)Nc2ccc(F)c(-c3ccc4c(-c5ncc[nH]5)n[nH]c4c3F)c2F)c1C [Example 2AR, N-(2,4-difluoro-3-(7-fluoro-3-(1H-imidazol-2-yl)-1H-indazol-6-yl)phenyl)-3-methoxy-2-methylbenzene-sulfonamide]

Same assay, conditions: Table 9

Compound	IC50 [nM]
COc1ncc(F)cc1S(=O)(=O)Nc1ccc(F)c(-c2ccc3c(-c4nc(C(O)CO)c[nH]4)n[nH]c3c2F)c1F (centres unmarked) [Example 21, N-(3-(3-(4-(1,2-Dihydroxyethyl)-1H-imidazol-2-yl)-7-fluoro-1H-indazol-6-yl)-2,4-difluorophenyl)-5-fluoro-2-methoxypyridine-3-sulfonamide]	< 500
Cc1ncc(F)cc1S(=O)(=O)Nc1ccc(F)c(-c2ccc3c(-c4cccc(=O)[nH]4)n[nH]c3c2F)c1F [Example 15, N-(2,4-Difluoro-3-(7-fluoro-3-(6-oxo-1,6-dihydropyridin-2-yl)-1H-indazol-6-yl)phenyl)-5-fluoro-2-methylpyridine-3-sulfonamide]	< 500
CNC(=O)c1n[nH]c2c(F)c(-c3c(F)cnc(NS(=O)(=O)c4cc(F)cnc4C)c3F)ccc12 [Example 24, 6-(3,5-Difluoro-2-((5-fluoro-2-methylpyridine)-3-sulfonamido)pyridin-4-yl)-7-fluoro-N-methyl-1H-indazole-3-carboxamide]	> 10000

The next lines start with the values.

IC50 [nM]	Compound
< 500	COc1ncc(F)cc1S(=O)(=O)Nc1ccc(F)c(-c2ccc3c(C(=O)NCCCNC(C)=O)n[nH]c3c2F)c1F [Example 3AV, N-(3-acetamidopropyl)-6-(2,6-difluoro-3-((5-fluoro-2-methoxypyridine)-3-sulfon-amido)phenyl)-7-fluoro-1H-indazole-3-carboxamide]
< 500	COc1ncc(Cl)cc1S(=O)(=O)Nc1c(F)ccc(-c2ccc3c(-c4ncc[nH]4)n[nH]c3c2F)c1F [Example 3A, 5-chloro-N-(2,6-difluoro-3-(7-fluoro-3-(1H-imidazol-2-yl)-1H-indazol-6-yl)phenyl)-2-methoxypyridine-3-sulfonamide]
< 500	Cc1c(CO)cc(F)cc1S(=O)(=O)Nc1ccc(F)c(-c2ccc3c(C(=O)Nc4cn[nH]c4)n[nH]c3c2F)c1F [Example 4K]
> 10000	COc1ncncc1S(=O)(=O)Nc1ccc(F)c(-c2ccc3c(C(=O)NCCCN(C)C)n[nH]c3c2F)c1F [Example 3CM, 6-(2,6-difluoro-3-((4-methoxypyrimidine)-5-sulfonamido)phenyl)-N-(3-(dimethylamino)propyl)-7-fluoro-1H-indazole-3-carboxamide]
< 500	Cn1cc(NC(=O)c2n[nH]c3c(F)c(-c4c(F)ccc(NS(=O)(=O)c5cc(F)cc6c5CCC6O)c4F)ccc23)cn1 (centres unmarked) [Example 4AI]
< 500	Cc1ncc(F)cc1S(=O)(=O)Nc1ccc(F)c(-c2ccc3c(C(=O)NCCCO)n[nH]c3c2F)c1F [Example 3AZ, 6-(2,6-difluoro-3-((5-fluoro-2-methylpyridine)-3-sulfonamido)phenyl)-7-fluoro-N-(3-hydroxypropyl)-1H-indazole-3-carboxamide]
< 500	COc1ncc(F)cc1S(=O)(=O)Nc1ccc(F)c(-c2ccc3c(C(=O)NCCCN(C)C)n[nH]c3c2F)c1F [Example 3U, 6-(2,6-difluoro-3-((5-fluoro-2-methoxypyridine)-3-sulfonamido)phenyl)-N-(3-(dimethylamino)propyl)-7-fluoro-1H-indazole-3-carboxamide]
500 to 2500	COc1ncc(F)cc1S(=O)(=O)Nc1ccc(F)c(-c2ccc3c(C(=O)NC4CCNCC4)n[nH]c3c2F)c1F [Example 3AU, 6-(2,6-difluoro-3-((5-fluoro-2-methoxypyridine)-3-sulfonamido)phenyl)-7-fluoro-N-(piperidin-4-yl)-1H-indazole-3-carboxamide]
2500 to 10000	COc1ncc(Cl)cc1S(=O)(=O)Nc1ccc(F)c(-c2ccc3c(C(=O)NC4COC4)n[nH]c3c2F)c1F [Example 3B, 6-(3-((5-chloro-2-methoxy-pyridine)-3-sulfonamido)-2,6-difluorophenyl)-7-fluoro-N-(oxetan-3-yl)-1H-indazole-3-carboxamide]
< 500	CN(C)CCCNC(=O)c1n[nH]c2c(F)c(-c3c(F)ccc(NS(=O)(=O)c4cc(F)cc(CO)c4F)c3F)ccc12 [Example 4P]
< 500	COc1ncc(F)cc1S(=O)(=O)Nc1cc(F)cc(-c2ccc3c(C(=O)N[C@@H]4CCN(C)C4)n[nH]c3c2F)c1F [Example 3BS, 6-(3-((5-fluoro-2-methoxy-pyridine)-3-sulfonamido)-2,5-difluorophenyl)-7-fluoro-N-((R)-1-methylpyrrolidin-3-yl)-1H-indazole-3-carboxamide]
500 to 2500	COc1ncc(F)cc1S(=O)(=O)Nc1cccc(-c2ccc3c(C(=O)NC[C@@H](O)CO)n[nH]c3c2F)c1F [Example 3AX, 6-(2-fluoro-3-((5-fluoro-2-methoxypyridine)-3-sulfonamido)phenyl)-N-((R)-2,3-dihydroxypropyl)-7-fluoro-1H-indazole-3-carboxamide]
> 10000	Cc1ncc(F)cc1S(=O)(=O)Nc1cc(C#N)cc(-c2ccc3c(-c4ncc[nH]4)n[nH]c3c2F)c1F [Example 3CC, N-(5-cyano-2-fluoro-3-(7-fluoro-3-(1H-imidazol-2-yl)-1H-indazol-6-yl)phenyl)-5-fluoro-2-methylpyridine-3-sulfonamide]
< 500	Cc1ccc(S(=O)(=O)Nc2ccc(F)c(-c3ccc4c(C(=O)Nc5cn[nH]c5)n[nH]c4c3F)c2F)c(C)n1 [Example 3DI, 6-(3-((2,6-dimethylpyridine)-3-sulfonamido)-2,6-difluoro-phenyl)-7-fluoro-N-(1H-pyrazol-4-yl)-1H-indazole-3-carboxamide]
2500 to 10000	COc1ncc(CO)cc1S(=O)(=O)Nc1ccc(F)c(-c2ccc3c(C(=O)NCCCO)n[nH]c3c2F)c1F [Example 3CN, 6-(2,6-difluoro-3-((5-(hydroxylmethyl)-2-methoxy-pyridine)-3-sulfonamido)-phenyl)-7-fluoro-N-(3-hydroxypropyl)-1H-indazole-3-carboxamide]
500 to 2500	COc1ncc(C#N)cc1S(=O)(=O)Nc1ccc(F)c(-c2ccc3c(C(N)=O)n[nH]c3c2F)c1F [Example 3CY, 6-(3-((5-cyano-2-methoxy-pyridine)-3-sulfonamido)-2,6-difluorophenyl)-7-fluoro-1H-indazole-3-carboxamide]
< 500	COc1ncc(F)cc1S(=O)(=O)Nc1ccc(F)c(-c2ccc3c(-c4n[nH]c(=O)[nH]4)n[nH]c3c2F)c1F [Example 3CW, N-(2,4-difluoro-3-(7-fluoro-3-(5-oxo-4,5-dihydro-1H-1,2,4-triazol-3-yl)-1H-indazol-6-yl)phenyl)-5-fluoro-2-methoxypyridine-3-sulfonamide]
> 10000	COc1ncc(CO)cc1S(=O)(=O)Nc1ccc(F)c(-c2ccc3c(C(=O)NCCCN(C)C)n[nH]c3c2F)c1F [Example 3DB, 6-(2,6-difluoro-3-((5-(hydroxymethyl)-2-meth-oxypyridine)-3-sulfonamido)-phenyl)-N-(3-(dimethyl-amino)propyl)-7-fluoro-1H-indazole-3-carboxamide]
